This is an account of results in ChEMBL document CHEMBL1156193, “Discovery of a long-acting, peripherally selective inhibitor of catechol-O-methyltransferase” (2010).

SMILES strings stand for the structures. Activity calls are given as the source filed them. No cut-off for these calls is given here.

Assay [1] has as its system Rattus norvegicus. Put plainly: Inhibition of COMT in Wistar rat liver homogenates assessed as metanephrine formation at 3 mg/kg, po measured after 3 hrs relative to control; values are per cent of control.
Assay [2] concerns Rattus norvegicus. Nature of the assay: Inhibition of COMT in Wistar rat brain homogenates assessed as metanephrine formation at 3 mg/kg, po measured after 1 hr. The arrangement: dose 3 mg/kg. Format: functional, organism-based.
Assay [3] can be described thus: Cytotoxicity against mouse Neuro2a cells assessed as cell viability at 30 uM after 24 hrs. Conditions: N2a, read-out: Activity. In kind it is functional.
Assay [4] has as its system Rattus norvegicus. Put plainly: Inhibition of COMT in po dosed Wistar rat liver homogenates assessed as metanephrine formation measured up to 3 hrs relative to control. In kind it is functional.
Assay [5] concerns Rattus norvegicus. Put plainly: Inhibition of central COMT in Wistar rat brain homogenates assessed as metanephrine formation at 3 mg/kg, po measured after 9 hrs. In kind it is functional.
The subject of assay [6] is Mus musculus. Nature of the assay: Inhibition of COMT in NMRI mouse liver homogenates assessed as metanephrine formation at 3 mg/kg, po measured after 3 hrs relative to control; values are per cent of control.
The subject of assay [7] is Rattus norvegicus. Put plainly: Inhibition of COMT in Wistar rat liver homogenates assessed as metanephrine formation at 3 mg/kg, po measured after 3 hrs. In kind it is functional, organism-based. The arrangement: dose 3 mg/kg.
In assay [8] the test system is Rattus norvegicus. Put plainly: Inhibition of COMT in Wistar rat brain homogenates assessed as metanephrine formation at 3 mg/kg, po measured after 3 hrs. Format: functional, organism-based. Also on record: dose 3 mg/kg.
The species named for assay [9] is Rattus norvegicus. The settings on record: Wistar, Liver, 3 mg/kg.
Assay [10] deals with Rattus norvegicus. Put plainly: Inhibition of COMT in Wistar rat plasma assessed as decrease in 3-O-methyl-L-Dopa level at 3 mg/kg, po co-administered with L-dopa and benserazide measured after 7 hrs by HPLC analysis. In kind it is functional, organism-based. The arrangement: dose 3 mg/kg.
Assay [11] deals with Rattus norvegicus. Nature of the assay: Inhibition of COMT in Wistar rat plasma assessed as decrease in 3-O-methyl-L-Dopa level at 3 mg/kg, po co-administered with L-dopa and benserazide measured after 2 hrs by HPLC analysis. In kind it is functional, organism-based. Also on record: dose 3 mg/kg.
The test system of assay [12] is Rattus norvegicus. Put plainly: Inhibition of COMT in Wistar rat plasma assessed as increase L-DOPA level at 3 mg/kg, po co-administered with L-dopa and benserazide measured after 2 hrs by HPLC analysis. Format: functional.
Assay [13] deals with Rattus norvegicus. Put plainly: Inhibition of COMT in Wistar rat liver homogenates assessed as metanephrine formation at 3 mg/kg, po measured after 1 hr. In kind it is functional, organism-based. Also on record: dose 3 mg/kg.
For assay [14], the system named is Rattus norvegicus. Put plainly: Inhibition of COMT in Wistar rat plasma assessed as increase L-DOPA level at 3 mg/kg, po co-administered with L-dopa and benserazide measured after 24 hrs by HPLC analysis. Format: functional, organism-based. The arrangement: dose 3 mg/kg.
The test system of assay [15] is Mus musculus. Nature of the assay: Inhibition of COMT in NMRI mouse liver homogenates assessed as metanephrine formation at 30 mg/kg, po measured after 6 hrs relative to control; values are per cent of control.
The test system of assay [16] is Rattus norvegicus. Nature of the assay: Inhibition of COMT in Wistar rat plasma assessed as increase L-DOPA level at 3 mg/kg, po co-administered with L-dopa and benserazide measured after 7 hrs by HPLC analysis. Format: functional.
Assay [17] deals with Rattus norvegicus. Put plainly: Inhibition of central COMT in Wistar rat liver homogenates assessed as metanephrine formation at 3 mg/kg, po measured after 9 hrs. In kind it is functional. The settings on record: Brain, in the assay text read “rat brain homogenates” for “rat liver homogenates”.
The subject of assay [18] is Rattus norvegicus. Nature of the assay: Inhibition of peripheral COMT in Wistar rat liver homogenates assessed as metanephrine formation at 3 mg/kg, po measured after 9 hrs.
Assay [19] concerns Rattus norvegicus. Nature of the assay: Inhibition of central COMT in Wistar rat brain homogenates assessed as metanephrine formation at 3 mg/kg, po measured up to 24 hrs. Format: functional, organism-based. The arrangement: dose 3 mg/kg.
Assay [20] relates to Rattus norvegicus. Nature of the assay: Inhibition of peripheral COMT in Wistar rat liver homogenates assessed as metanephrine formation at 3 mg/kg, po measured after 24 hrs. In kind it is functional.
The subject of assay [21] is Rattus norvegicus. Put plainly: Inhibition of peripheral COMT in Wistar rat brain homogenates assessed as metanephrine formation at 3 mg/kg, po measured after 24 hrs. In kind it is functional. The settings on record: Liver, in the assay text read “rat liver homogenates” for “rat brain homogenates”.
The test system of assay [22] is Rattus norvegicus. Nature of the assay: Inhibition of COMT in Wistar rat plasma assessed as decrease in 3-O-methyl-L-Dopa level at 3 mg/kg, po co-administered with L-dopa and benserazide measured after 2 hrs by HPLC analysis relative to control. Format: functional.
The test system of assay [23] is Rattus norvegicus. Nature of the assay: Inhibition of COMT in Wistar rat plasma assessed as decrease in 3-O-methyl-L-Dopa level at 3 mg/kg, po co-administered with L-dopa and benserazide measured after 24 hrs by HPLC analysis. Format: functional, organism-based. Also on record: dose 3 mg/kg.
The subject of assay [24] is Rattus norvegicus. Put plainly: Inhibition of central COMT in Wistar rat brain homogenates assessed as metanephrine formation at 3 mg/kg, po measured up to 24 hrs.

With `Cc1ccc(C(=O)c2cc(O)c(O)c([N+](=O)[O-])c2)cc1` [TOLCAPONE], the level, % of control at 3 mg/kg in the assay on Rattus norvegicus [1] was found to be 23.8%; in the assay on Mus musculus [6], 15.1%. The inhibition entry with Rattus norvegicus [2], in the assay with Rattus norvegicus [7], in the assay on Rattus norvegicus [8], in the assay with Rattus norvegicus [10] and in the assay with Rattus norvegicus [11] was “Active” each time. Also, the viability at 30 µM in assay [3] came to 27.2%. The ED50 with Rattus norvegicus [4] came out at 1.77 mg/kg. Besides, the inhibition in vivo at 3 mg/kg in the assay on Rattus norvegicus [5] and in the assay on Rattus norvegicus [17] was 50% in each case. In addition, the inhibition result in the assay filed under Rattus norvegicus [9], in the assay on Rattus norvegicus [14] and in the assay on Rattus norvegicus [18] was “inactive” each time. In addition, the “fold change (FC)” value with Rattus norvegicus [12] worked out at 3; with Rattus norvegicus [16], 2. Further, the result in the assay on Rattus norvegicus [13] was Active. Also, the level, % of control at 30 mg/kg in the assay on Mus musculus [15] was 6.8%.
For `Cc1c(Cl)c(C)[n+]([O-])c(Cl)c1-c1noc(-c2cc(O)c(O)c([N+](=O)[O-])c2)n1` [OPICAPONE], the level, % of control at 3 mg/kg in the assay with Rattus norvegicus [1] was 0.7%. Moreover, the viability at 30 µM in [3] amounted to 86.6%. In addition, the ED50 in the assay on Rattus norvegicus [4] worked out at 1.05 mg/kg. In addition, the inhibition result in the assay on Rattus norvegicus [7], with Rattus norvegicus [23] and with Rattus norvegicus [13] was “Active” in each case. Besides, the inhibition entry in the assay with Rattus norvegicus [19] and with Rattus norvegicus [24] was “inactive” each time. The inhibition in vivo at 3 mg/kg with Rattus norvegicus [20], with Rattus norvegicus [21] and with Rattus norvegicus [22] was 50% in each case. In addition, in the assay on Rattus norvegicus [12], the “fold change (FC)” value worked out at 2.

By ED50 is commonly meant the dose at which the effect has come halfway, by size or by number of responders. As usually defined, the inhibition in vivo is the relative decrease from the control value, in per cent.
